Assay [1] addresses T1, microtubule proteins originated from swine brain (Sus scrofa, UniProt P02550+P02554).
T1 construct: Microtubule proteins was extracted from swine brain by the Shelansky method; from tissue; host or cells: swine brain
Briefly: Tubulin polymerization inhibitory test (turbidity measurement). The class given is biochemical. Conditions: microtubule proteins 2 mg/ml, GTP 1 mM, 37° C. for 30 min, absorbance at 340 nm; read-out: IC50 (tubulin polymerization inhibition) (converted). As to the method: Tubulin polymerization inhibitory test using microtubule proteins originated from swine brain: Microtubule proteins was extracted from swine brain by the Shelansky method(Tanpakusitu jikkenhou, Zoku-Seikagaku Jikken Kouza, Vol.6, “Structure and Function of Cytoskeleton” (1st Vol.), Tokyo Kagaku Dojin). Polymerization of microtubule proteins was assayed by turbidity measurement.
Change in turbidity can be measured by an absorptiometer. The compounds of the present invention were dissolved in dimethylsulfoxide to prepare their test solutions. To 245 μl of a RB solution containing microtubule proteins(2 mg/ml)and GTP(1 mM) was added 5μl of either an above test solution or dimethylsulfoxide to prepare a sample, which was incubated at 37° C. for 30 min. […] Absorbance at 340 nm of the compound was previously measured.
Inhibitory Rate(%)=[1−(T−Cmin)/(Cmax−Cmin)]×100
where T is absorbance of the incubated sample with a test compound, Cmax is absorbance of the incubated sample without the compound, and Cmin is the non-incubated sample without the compound.

Assay [2] concerns A2780 (Humane Ovarian Cancer Cell). In words: Anti-tumor in vitro test using A2780 (MTT). The settings on record: Homo sapiens, A2780, 72 h, 3 days incubation, absorbance at 540 nm, read-out: IC50 (A2780 growth inhibition). Type of assay: cell-based. As to the method:
A2780 cells that were suspended on a RPMI 1640 culture medium containing 10% calf serum, penicillin (50 U/ml), and streptomycin (50 μg/ml were seeded in a 96 well flat microplate by 1000 cells (0.2 ml) well, and cultured in a 5% carbon dioxide atmospheric incubator at 37° C. for 1 day. The compounds of the present invention that were dissolved in dimetylsulfoxide anddiluted with a RPMI 1640 containing 10% calf serum to prepare the samples, provided that dimetylsulfoxide was restricted to 0.2% and below in concentration.
The Supernatant liquids of the above A2780 cells wells were removed by aspiration, and then each 0. 2 ml of the prepared samples were added to the wells, which were incubated in a 5% carbon dioxide atmospheric incubator at 37° C. for 3 days. After the incubation, each 0.01 ml of MTT solutions(3-(4,5-dimethylthiazole-2-yl)-2,5-dipheny-ltetra zolium bromide, 5 mg/ml) were added to the wells, which were incubated for another 2 hrs. After the supernatant liquids in the wells were removed by aspiration, the formazans formed in the wells were dissolved in 0.1 ml of dimetylsulfoxide, and absorbances at 540 nm were measured by a micro plate reader to determine indices of live cells counts in the wells.
Inhibitory Rate(%)=[(C−T)/C]×100
where T is absorbance in the well with a test compound and C is absorbance in the well without the compound.

For assay [3], the system named is collagen-induced arthritis in mice. In words: Prophylactic experiment of collagen-induced arthritis in mice. The class given is in vivo. The settings on record: last day of test. On the procedure:
The suspension of M. tuberculosis H37RA in Freund […] adjuvant (2 mg/ml) was mixed with 0.3% typeII collagen (extracted from bovine articular cartilage, Collagen Gijutsu KensyU Kai) in their equal amounts to form an emulsion, 0.1 ml of which was injected subcutaneously into the base of the tail of mice to sensitize it. After twenty-one days, 0.3% type II collagen was diluted with physiological saline solution to the one sixth concentration of the solution, 0.2 ml of which was injected intraperitoneally to sensitize secondarily. The mice that the first sensitizations caused to fall into arthritis were excluded from the test. The suspensions of the compounds(in the Example 13, 27, and 28) in 0.5% sodium carboxy methylcellulose (CMC—Na) were administrated orally to the test group mice once a day for 5 weeks from the day after the second sensitization. 0.5% CMC—Na solutions were administrated to the control group mice to be compared with. Each group was composed of eight mice. […] Scores and their standards are as follows.
1: Tumefaction or rubor in only one finger(or heel)
2: Tumefaction or rubor in two or above fingers (or heels) or in parts of fore (or hind) paw(s)
3: Tumefaction or rubor in the wholes of fore (or hind) paw(s) including joints
4: Ankylosis in the joints of finger(s) (or heel(s)) or fore (or hind) paw(s)

The mark [4] stands for this setting: 50 mg/kg orally once a day for 5 weeks.

≈ marks a conversion by molar mass, not a printed value.

T1 sequence (P02550 whole entry): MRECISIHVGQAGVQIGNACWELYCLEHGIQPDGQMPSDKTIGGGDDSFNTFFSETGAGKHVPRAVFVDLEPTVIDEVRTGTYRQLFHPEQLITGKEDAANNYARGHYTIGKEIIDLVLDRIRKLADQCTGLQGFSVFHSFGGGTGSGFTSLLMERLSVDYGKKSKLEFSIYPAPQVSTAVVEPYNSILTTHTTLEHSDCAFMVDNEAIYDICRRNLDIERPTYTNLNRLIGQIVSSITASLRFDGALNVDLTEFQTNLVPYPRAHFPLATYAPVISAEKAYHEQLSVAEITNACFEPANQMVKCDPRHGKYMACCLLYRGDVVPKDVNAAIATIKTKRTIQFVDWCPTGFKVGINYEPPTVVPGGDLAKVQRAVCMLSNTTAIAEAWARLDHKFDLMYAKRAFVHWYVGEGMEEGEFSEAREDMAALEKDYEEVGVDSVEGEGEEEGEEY
T1 sequence (P02554 whole entry): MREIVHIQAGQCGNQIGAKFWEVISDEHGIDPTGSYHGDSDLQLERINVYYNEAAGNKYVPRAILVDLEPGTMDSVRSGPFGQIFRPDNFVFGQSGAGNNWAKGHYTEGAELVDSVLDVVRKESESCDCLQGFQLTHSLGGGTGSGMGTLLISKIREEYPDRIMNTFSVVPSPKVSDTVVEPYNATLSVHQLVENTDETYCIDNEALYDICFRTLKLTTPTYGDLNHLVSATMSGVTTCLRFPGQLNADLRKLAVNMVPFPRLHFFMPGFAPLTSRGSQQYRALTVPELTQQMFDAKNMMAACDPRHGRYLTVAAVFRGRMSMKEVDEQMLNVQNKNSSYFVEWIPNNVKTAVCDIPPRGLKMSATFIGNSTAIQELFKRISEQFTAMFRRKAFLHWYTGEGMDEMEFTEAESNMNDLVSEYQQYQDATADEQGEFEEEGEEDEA

By IC50 is commonly meant the concentration at which inhibition is half-maximal. As for `COc1ccc(S(=O)(=O)Nc2ccccc2NC(=O)C2CSCN2)cc1.Cl` (racemic) [Example 15, (±)-N-[2-(4-Methoxybenzenesulfonamide)phenyl]-4-thiazolidine Carboxamide HCl Salt], the IC50 was 4.3 µM in assay [1] and 0.025 mg/L in assay [2].

Regarding `COc1ccc(S(=O)(=O)Nc2ccccc2NC(=O)C2CCCCN2)cc1.Cl` (racemic) [Example 20, (±)-N-[2-4-Methoxybenzenesulfonamide)phenyl]-2piperidine Carboxamide HCl Salt], in assay [2], the IC50 was 6.8 mg/L.

Take `COc1ccc(S(=O)(=O)Nc2ccccc2NC(=O)c2cnoc2C)cc1` [Example 1, N-[2-(4-Methoxybenzenesulfonamide)phenyl]-5-methyl-4-isoxazole Carboxamide]: the IC50 in assay [1] is 3.1 µM; in assay [2] it was 0.023 mg/L (≈ 0.0594 µM).

For the compound `COc1ccc(S(=O)(=O)Nc2ccccc2NC(=O)c2cn(C)nc2C)cc1` [Example 2, N-[2-(4-Methoxybenzenesulfonamide)phenyl]-3-dimethyl-4-(1H-pyrazole)carboxamide], the figures for the IC50 in assay [1] and in assay [2] were 89.9 µM and 0.58 mg/L (≈ 1.45 µM), respectively.

In the case of `COc1ccc(S(=O)(=O)Nc2ccccc2NC(=O)c2csc(C)n2)cc1` [Example 3, N-[2-(4-Methoxybenzenesulfonamide)phenyl]-2-methyl-4-thiazole Carboxamide], the IC50 is 94.2 µM in assay [1] and 0.22 mg/L (≈ 0.545 µM) in assay [2].

Regarding `COc1ccc(S(=O)(=O)Nc2ccccc2NC(=O)c2csnc2C)cc1` [Example 4, N-[2-(4-Methoxybenzenesulfonamide)phenyl]-3-methyl-4-isothiazole Carboxamide], the IC50 in assay [1] was 3.47 µM; in assay [2], 0.017 mg/L (≈ 0.0421 µM).

As to `COc1ccc(S(=O)(=O)Nc2ccccc2NC(=O)c2nc(C)oc2C)cc1` [Example 5, N-[2-(4-Methoxybenzenesulfonamide)phenyl]-2,5-dimethyl-4-oxazole Carboxamide], the IC50 in assay [2] amounted to 7.2 mg/L (≈ 17.9 µM).

For `COc1ccc(S(=O)(=O)Nc2ccccc2NC(=O)c2cn(C)cn2)cc1` [Example 6, N-[2-(4-Methoxybenzenesulfonamide)phenyl]-1-methyl-1H-imidazole-4-carboxamide], the IC50 is 101 µM in assay [1] and 0.14 mg/L (≈ 0.362 µM) in assay [2].

With `Cc1ccc(S(=O)(=O)Nc2ccccc2NC(=O)c2cnoc2C)cc1` [Example 7, N-[2-(p-Toluenesulfonamide)phenyl]-5-methyl-4-isoxazole Carboxamide], the IC50 was 13.7 µM in assay [1] and 0.2 mg/L (≈ 0.538 µM) in assay [2].

Take `Cc1oncc1C(=O)Nc1ccccc1NS(=O)(=O)c1ccccc1` [Example 8, N-[2-(Benzenesulfonamide)phenyl]-5-methyl-4-isoxazole Carboxamide]: the IC50 in assay [1] was 644 µM; in assay [2], 6.7 mg/L (≈ 18.7 µM).

As for `Cc1oncc1C(=O)Nc1ccccc1NS(=O)(=O)c1ccc(F)cc1` [Example 9, N-[2-(4-Fluorobenzenesulfonamide)phenyl]-5-methyl-4-isoxazole Carboxamide], the IC50 was 400 µM in assay [1] and 13 mg/L (≈ 34.6 µM) in assay [2].

`COc1ccc(S(=O)(=O)Nc2ccccc2NC(=O)c2cnoc2C)cc1OC` [Example 11, N-[2-(3,4-Dimethoxybenzenesulfonamide)phenyl]-5-methyl-4-isoxazole Carboxamide]: the IC50 in assay [1] is 359 µM; in assay [2] it was 0.68 mg/L (≈ 1.63 µM).

In the case of `COc1ccc(S(=O)(=O)Nc2ccccc2NC(=O)[C@@H]2CCCN2)cc1.Cl` [Example 12, N-[2-(4-Methoxybenzenesulfonamide)phenyl]-(L)-prolinamide HCl Salt], the IC50 in assay [2] was 9.7 mg/L.

Regarding `COc1ccc(S(=O)(=O)Nc2ccccc2NC(=O)c2c(C)noc2C)cc1` [Example 13, N-[2-(4-Methoxybenzenesulfonamide)phenyl]-3,5-dimethyl-4-isoxazole Carboxamide], the IC50 in assay [1] was 3.49 µM; in assay [2] it was 0.01 mg/L (≈ 0.0249 µM). Besides, the entries for the “Averaged score (arthritis, 0 to 4 per limb, maximum 16)” value in assay [3] (25 mg/kg orally once a day for 5 weeks) and in assay [3] (setting [4]) were 2.3 ± 0.8 and 0.4 ± 0.4, respectively.

Regarding `CCc1oncc1C(=O)Nc1ccccc1NS(=O)(=O)c1ccc(OC)cc1` [Example 14, N-[2-(4-Methoxybenzenesulfonamide)phenyl]-5-ethyl-4-isoxazole Carboxamide], the figures for the IC50 in assay [1] and in assay [2] were 4.11 µM and 0.036 mg/L (≈ 0.0897 µM), respectively.

On to `COc1ccc(S(=O)(=O)Nc2ccccc2NC(=O)[C@H]2CCCN2)cc1.Cl` [Example 17], for which the IC50 in assay [2] was found to be 1.4 mg/L.

With `COc1ccc(S(=O)(=O)Nc2ccccc2NC(=O)c2ncoc2C)cc1` [Example 21, N-[2-(4-Methoxybenzenesulfonamide)phenyl]-5-methyl-4-oxazole Carboxamide], the IC50 is 12.1 µM in assay [1] and 0.079 mg/L (≈ 0.204 µM) in assay [2].

`COc1ccc(S(=O)(=O)Nc2ccccc2NC(=O)C2CCCCC2)cc1` [Example 22, N-[2-(4-Methoxybenzenesulfonamide)phenyl]-cyclohexyl Carboxamide]: the values for the IC50 in assay [1] and in assay [2] were 4.89 µM and 0.14 mg/L (≈ 0.36 µM), respectively.

In the case of `COc1ccc(S(=O)(=O)Nc2ccccc2NC(=O)C2CC2)cc1` [Example 23, N-[2-(4-Methoxybenzenesulfonamide)phenyl]-cyclopropyl Carboxamid], the IC50 in assay [1] is 3.46 µM; in assay [2], 0.006 mg/L (≈ 0.0173 µM).

`COc1ccc(S(=O)(=O)Nc2ccccc2NC(=O)C2CCC2)cc1` [Example 24, N-(2-(4-Methoxybenzenesulfonamide)phenyl]-cyclobutyl Carboxamid]: the values for the IC50 in assay [1] and in assay [2] were 3.19 µM and 0.006 mg/L (≈ 0.0166 µM), respectively.

Consider `COc1ccc(S(=O)(=O)Nc2ccccc2NC(=O)C2CCCC2)cc1` [Example 25], for which the values for the IC50 in assay [1] and in assay [2] were 4.14 µM and 0.05 mg/L (≈ 0.134 µM), respectively.

For the compound `COc1ccc(S(=O)(=O)Nc2ccccc2NC(=O)c2cccn2C)cc1` [Example 26, N-[2-(4-Methoxybenzenesulfonamide)phenyl]-N-methyl-2-pyrrole Carboxamide], the half-inhibitory concentration (IC50) in assay [1] was 4.93 µM; in assay [2], 0.034 mg/L (≈ 0.0882 µM).

With `CCc1noc(C)c1C(=O)Nc1ccccc1NS(=O)(=O)c1ccc(OC)cc1` [Example 27, N-[2-(4-Methoxybenzenesulfonamide)phenyl]-3-ethyl-5-methyl-4-isoxazole Carboxamide], the results for the IC50 in assay [1] and in assay [2] were 4.45 µM and 0.034 mg/L (≈ 0.0818 µM), respectively. For the same compound, the “Averaged score (arthritis, 0 to 4 per limb, maximum 16)” value in assay [3] (setting [4]) came to 1.7 ± 1.1.

With `CCc1noc(CC)c1C(=O)Nc1ccccc1NS(=O)(=O)c1ccc(OC)cc1` [Example 29, N-[2-(4-Methoxybenzenesulfonamide)phenyl]-3,5-diethyl-4-isoxazole Carboxamide], the IC50 in assay [1] was 9.2 µM; in assay [2], 0.14 mg/L (≈ 0.326 µM).

Consider `COc1ccc(S(=O)(=O)Nc2ccccc2NC(=O)c2c(C)noc2C(C)C)cc1` [Example 30, N-[2-(4-Methoxybenzenesulfonamide)phenyl]-5-isopropyl-3-methyl-4-isoxazole Carboxamide], for which the IC50 in assay [1] is 7.68 µM; in assay [2], 0.16 mg/L (≈ 0.373 µM).

Take `COc1ccc(S(=O)(=O)Nc2ccccc2NC(=O)c2c(-c3ccccc3)noc2C)cc1` [Example 31, N-[2-(4-Methoxybenzenesulfonamide)phenyl]-5-methyl-3-phenyl-4-isoxazole Carboxamide]: in assay [2], the IC50 came out at 0.3 mg/L (≈ 0.647 µM).

Turning to `COc1ccc(S(=O)(=O)Nc2ccccc2NC(=O)c2c(C)noc2-c2ccccc2)cc1` [Example 32, N-[2-(4-Methoxybenzenesulfonamide)phenyl]-3-methyl-5-phenyl-4-isoxazole Carboxamide], in assay [2], the IC50 is 0.62 mg/L (≈ 1.34 µM).
